The source of these data is patent US8431564B2 (Merck Sharp & Dohme B.V., priority 2009, dated 2013).

In the first assay the target is T1, human FSH receptor (Homo sapiens, UniProt P23945).
T1 construct: expressed in transfected cells; host or cells: CHO (Chinese Hamster Ovary) cells, stably transfected, cotransfected with CRE-luciferase reporter
T1 sequence (P23945 18-695): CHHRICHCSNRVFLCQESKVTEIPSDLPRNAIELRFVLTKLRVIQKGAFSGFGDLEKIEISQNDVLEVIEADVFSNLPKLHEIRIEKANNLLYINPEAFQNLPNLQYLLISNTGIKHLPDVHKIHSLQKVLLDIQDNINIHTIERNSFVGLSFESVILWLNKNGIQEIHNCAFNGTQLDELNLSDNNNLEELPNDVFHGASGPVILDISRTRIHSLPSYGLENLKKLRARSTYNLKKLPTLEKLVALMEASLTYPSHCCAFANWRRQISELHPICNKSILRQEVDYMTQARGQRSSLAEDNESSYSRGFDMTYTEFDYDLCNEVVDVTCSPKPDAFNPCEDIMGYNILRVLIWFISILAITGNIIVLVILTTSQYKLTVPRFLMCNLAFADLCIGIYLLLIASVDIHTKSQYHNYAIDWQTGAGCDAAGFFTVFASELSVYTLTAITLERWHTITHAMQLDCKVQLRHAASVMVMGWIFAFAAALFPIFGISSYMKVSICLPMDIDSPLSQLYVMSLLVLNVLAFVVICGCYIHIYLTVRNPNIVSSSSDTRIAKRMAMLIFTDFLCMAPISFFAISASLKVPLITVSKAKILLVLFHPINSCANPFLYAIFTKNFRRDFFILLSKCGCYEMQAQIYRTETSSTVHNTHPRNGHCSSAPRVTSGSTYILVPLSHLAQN
In words: Agonistic activity at the human FSH receptor expressed in CHO cells (CRE-luciferase reporter). Format: cell-based. To be noted: CHO cells stably transfected with human FSH receptor and CRE/luciferase reporter; 4 hours incubation; pEC50 is -log EC50. In a few lines:
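Stably transfected CHO cells with CRE-driven firefly luciferase reporter, incubated 4 h at 37° C. with compound (0.0316 nM–10.0 μM, duplicate, 1% DMSO final) in insulin/transferrin-supplemented medium. Luminescence after lysis; EC50 relative to compound's own maximum, efficacy as percent of recombinant human FSH maximum.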
(Reporter assays use an easily measured gene product as a stand-in for the process of interest.)
As to `CC(C)(C)N1CCCc2c(-c3cccs3)c3n(c2C1=O)CCc1ccc(-c2cnccn2)cc1-3` [Compound 4i], the “hFSHRago (CHO luc) pEC50” value is 7.86.

Still in this assay, the particulars now being: CHO cells stably transfected with human FSH receptor and CRE/luciferase reporter; 4 hours incubation; pEC50 is -log EC50; read-out: hFSHRago (CHO luc) pEC50 (converted).
For `COc1cc2c(cc1OC(C)C)-c1c(-c3cccs3)c3c(n1CC2)C(=O)N(C(C)C)CCC3` [Compound 6f], the EC50 was 50.1 nM.
`COc1cc2c(cc1C(=O)NCC(O)CO)-c1c(-c3cccs3)c3c(n1CC2)C(=O)N(C(C)(C)C)CCCC3` (stereo not shown) [Compound 26c5, 9-tert-butyl-3-methoxy-2-(2,3-dihydroxy-1-propylaminocarbonyl)-14-(thiophen-2-yl)-5,6,10,11,12,13-hexahydroazocino[4′,3′:4,5]pyrrolo[2,1-a]isoquinolin-8(9H)-one]: the EC50 is 0.871 nM.
On the same count and under the same terms, the value for `COc1cc2c(cc1-c1cccnc1)-c1c(Cl)c3c(n1CC2)C(=O)N(C(C)(C)C)CCCC3` [Compound 19f, 9-tert-butyl-3-methoxy-2-pyridin-3-yl-14-chloro-5,6,10,11,12,13-hexahydroazocino[4′,3′:4,5]pyrrolo[2,1-a]isoquinolin-8(9H)-one] was 12.3 nM; that for `COc1cc2c(cc1[C@H](O)[C@@H](O)CO)-c1c(-c3cccs3)c3c(n1CC2)C(=O)N(C(C)(C)C)CCCC3` [Compound 21h, (1S,2S)-1-(9-tert-butyl-14-(thien-2-yl)-3-methoxy-5,6,10,11,12,13-hexahydroazocino[4′,3′:4,5]pyrrolo[2,1-a]isoquinolin-8(9H)-on-2-yl)propane-1,2,3-triol] was 5.5 nM; that for `COc1cc2c(cc1-n1cc(C[C@H](O)CO)nn1)-c1c(-c3cccs3)c3c(n1CC2)C(=O)N(C(C)(C)C)CCCC3` [Compound 20f, (S)-9-tert-butyl-14-(thien-2-yl)-2-(4-(2,3-dihydroxypropyl)-1H-1,2,3-triazol-1-yl)-3-methoxy-5,6,10,11,12,13-hexahydroazocino[4′,3′:4,5]pyrrolo[2,1-a]isoquinolin-8(9H)-one] was 4.07 nM.
On the same count and under the same terms, the value for `COc1cc2c(cc1-c1cnccn1)-c1c(-c3cncs3)c3c(n1CC2)C(=O)N(C(C)(C)C)CCCOC3` [Compound 8g, 9-tert-butyl-3-methoxy-2-pyrazin-2-yl-15-(1,3-thiazol-5-yl)-5,6,9,10,11,12-hexahydro[1,5]oxazonino[8′,7′:4,5]pyrrolo[2,1-a]isoquinolin-8(14H)-one] was 120 nM.
Still for that read-out and setting: the value for `COc1cc2c(cc1N)-c1c(-c3cccs3)c3c(n1CC2)C(=O)N(C(C)(C)C)CCCC3` [Compound 20b, 9-tert-butyl-14-(thien-2-yl)-2-amino-3-methoxy-5,6,10,11,12,13-hexahydroazocino[4′,3′:4,5]pyrrolo[2,1-a]isoquinolin-8(9H)-one] was 39.8 nM; that for `COc1cc2c(cc1-c1c(C)nn(C)c1C)-c1c(-c3cccs3)c3c(n1CC2)C(=O)N(C(C)C)CCNC3` [Compound 10q, 9-isopropyl-3-methoxy-2-(1,3,5-trimethyl-1H-pyrazol-4-yl)-14-(2-thienyl)-5,6,10,11,12,13-hexahydro[1,4]diazocino[6′,7′:4,5]pyrrolo[2,1-a]isoquinolin-8(9H)-one] was 257 nM; that for `COc1cc2c(cc1[N+](=O)[O-])-c1c(-c3cccs3)c3c(n1CC2)C(=O)N(C(C)(C)C)CC3` [Compound 1i, 9-tert-butyl-3-methoxy-2-nitro-12-(2-thienyl)-5,6,10,11-tetrahydropyrido[4′,3′:4,5]pyrrolo[2,1-a]isoquinolin-8(9H)-one] was 100 nM.
`COc1cc2c(cc1NC(=O)CN(C)C)-c1c(-c3cccs3)c3c(n1CC2)C(=O)N(C(C)(C)C)CCCC3` [Compound 22b, 2-dimethylamino-N-(9-tert-butyl-14-(thien-2-yl)-3-methoxy-5,6,10,11,12,13-hexahydroazocino[4′,3′:4,5]pyrrolo[2,1-a]isoquinolin-8(9H)-on-2-yl)acetamide]: the EC50 was 4.68 nM.
Consider `COc1cc2c(cc1OC(C)C)-c1c(-c3cccnc3)c3c(n1CC2)C(=O)N(C(C)(C)C)CCOC3` [Compound 18e, 9-tert-butyl-3-methoxy-2-isopropoxy-14-pyridin-3-yl-5,6,10,11-tetrahydro-9H-[1,4]oxazocino[7′,6′:4,5]pyrrolo[2,1-a]isoquinolin-8(13H)-one], for which the EC50 was 63.1 nM.
Still for that read-out and setting: under `CCN1CCN(CC(=O)Nc2cc3c(cc2OC)CCn2c4c(c(-c5cccs5)c2-3)CCCCN(C(C)(C)C)C4=O)CC1` [Compound 22d, 2-(4-ethylpiperazin-1-yl)-N-(9-tert-butyl-14-(thien-2-yl)-3-methoxy-5,6,10,11,12,13-hexahydroazocino[4′,3′:4,5]pyrrolo[2,1-a]isoquinolin-8(9H)-on-2-yl)acetamide] stands 3.31 nM.
